This is an account of results in PubChem BioAssay (NCI).

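Growth conditions: 96-well plates. Treatment: test compound, 48 hours, 5 concentrations. Analysis: linear interpolation between bracketing concentrations; unreached endpoints set to highest concentration. The concentration for 50% growth inhibition is given as GI50. Definition used: TGI = concentration required for complete inhibition of growth.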

Holding throughout (assay): inhibition of tumour cell growth, NCI panel, 48 h
The subject of assay [1] is HCC-2998 colon.
Assay [2] concerns SW-620 colon.
Assay [3] concerns CCRF-CEM leukemia.
For assay [4], the system named is NCI-H460 lung.
In assay [5] the test system is NCI-H23 lung.
Assay [6] relates to COLO 205 colon.
Assay [7] has as its system U251 CNS.
Assay [8] deals with HT29 colon.
Assay [9] has as its system UACC-257 melanoma.
Assay [10] has as its system OVCAR-4 ovarian.

`CCSc1oc(-c2ccccc2)nc1[P+](c1ccccc1)(c1ccccc1)c1ccccc1`: the GI50 in [1] is 0.418 µM; in assay [2] it was 0.305 µM; in assay [3], 0.32 µM; in assay [4] it was 0.298 µM; in [5], 0.277 µM; in assay [6] it was 0.186 µM. For the same compound, the GI50 is 0.163 µM in assay [7], 0.238 µM in [8], 0.309 µM in [9] and 0.217 µM in [10]. Also, the TGI was determined as 2.16 µM in [1]; 7.32 µM in [2]; 3.21 µM in [3]; 1.08 µM in assay [4]; 1.1 µM in assay [5]; 0.42 µM in [6]. The TGI stood at 4.61 µM in [7], 2.33 µM in assay [8], 1.28 µM in assay [9] and 1.48 µM in [10].
Take `CC(C)C[C@H](NC(=O)[C@H](CCc1ccccc1)NC(=O)CN1CCOCC1)C(=O)N[C@@H](Cc1ccccc1)C(=O)N[C@@H](CC(C)C)C(=O)[C@@]1(C)CO1`: the GI50 in [1] is less than 0.0118 µM; in assay [2] it was less than 0.01 µM; in [3], less than 0.01 µM; in assay [4], 0.0235 µM; in assay [5] it was less than 0.015 µM; in assay [6], less than 0.0165 µM. Also, the GI50 is less than 0.0127 µM in [7], less than 0.01 µM in assay [8], 0.0547 µM in assay [9] and less than 0.0117 µM in [10]. Further, the TGI in assay [1] was 0.0227 µM; in assay [3], more than 100 µM; in assay [4], 0.153 µM; in assay [5], 0.115 µM; in [6], 0.172 µM; in [7], 0.0632 µM. The TGI turned out to be 0.0471 µM in [8] and 0.287 µM in [9].
As for `CC(C)[C@@H]1C=C(c2ccccc2)c2ccccc2C1C(C#N)(C#N)C(C)C` (stereo partly drawn), the TGI in assay [1], in assay [2], in [3], in assay [4], in assay [5] and in assay [6] was more than 100 µM each time. Besides, the TGI in assay [7], in assay [8], in [9] and in assay [10] was more than 100 µM in each case.
As for `N/C(=N\NS(=O)(=O)c1ccccc1)Oc1ccc(Cl)cc1`, the TGI in assay [1] is more than 100 µM; in assay [2] it was 19.5 µM; in assay [3] it was more than 100 µM; in [4] it was more than 100 µM; in [5] it was more than 100 µM; in [6], more than 100 µM. Further, the TGI in assay [7], in [8], in [9] and in assay [10] was more than 100 µM throughout.
Regarding `O=P(Oc1ccc(Cl)cc1)(Oc1ccc(Cl)cc1)N1CC1`, the TGI in assay [1] is more than 10 µM; in assay [2], more than 10 µM; in assay [3], 0.429 µM; in assay [4] it was more than 10 µM; in assay [5], more than 10 µM; in [6] it was more than 10 µM. The TGI in [7], in [8], in assay [9] and in [10] was more than 10 µM each time.
Regarding `C#CCN1C(=O)/C(=c2\sc3n(c2=O)C2C(NN=3)N(CC)C(=O)N2CC)c2ccccc21` (stereo not drawn), the GI50 in [1] was 1.19 µM; in assay [2] it was 0.422 µM; in [3] it was 0.381 µM; in assay [4], 0.439 µM; in [5], 1.51 µM; in assay [6], 0.987 µM. The GI50 in assay [7] was 0.648 µM; in [8], 0.387 µM; in assay [9] it was 49.2 µM; in assay [10] it was more than 27.3 µM. For the same compound, the TGI was more than 100 µM in assay [1]; more than 100 µM in assay [2]; more than 100 µM in assay [3]; more than 100 µM in assay [4]; 37.2 µM in assay [5]; more than 100 µM in assay [6]. Further, the TGI in assay [7] is more than 47 µM; in assay [8], more than 100 µM; in assay [9] it was more than 100 µM; in assay [10], more than 100 µM.
For the compound `COc1ccc2cccc(C(=O)c3ccc(C)c4c3CCC4)c2c1`, the TGI in assay [1] was 43.1 µM; in assay [2] it was more than 100 µM; in assay [3], more than 100 µM; in assay [4] it was more than 100 µM; in assay [5], 77 µM; in assay [6] it was 68.3 µM. For the same compound, the TGI in assay [7], in assay [8], in assay [9] and in [10] was more than 100 µM in each case.
Take `NC(=O)CCC(NC(=O)OCc1ccccc1)C(=O)OCC(=O)c1ccccc1` (stereo not drawn): the GI50 in assay [1] was 65.6 µM; in assay [2], more than 100 µM; in assay [3], more than 100 µM; in assay [4] it was more than 100 µM; in [5], more than 100 µM; in assay [6], more than 100 µM. Further, the GI50 in assay [7], in assay [8], in [9] and in assay [10] was more than 100 µM in each case. For the same compound, the TGI in assay [1], in [2], in assay [3], in assay [4], in [5] and in assay [6] was more than 100 µM throughout. For the same compound, the TGI in assay [7], in [8], in assay [9] and in assay [10] was more than 100 µM in each case.
For the compound `Cn1c2c([N+](=O)[O-])[se]nc2c(=O)n1-c1ccc([N+](=O)[O-])cc1`, the TGI was 3.62 µM in assay [1]; 1.48 µM in assay [2]; more than 100 µM in assay [3]; 6.77 µM in [4]; 4.49 µM in assay [5]; 4.23 µM in assay [6]. In addition, the TGI was 7.04 µM in assay [7], 8.12 µM in assay [8], 4.17 µM in assay [9] and 0.909 µM in assay [10].
Turning to `CCCCCCCCCCCC(=O)OCC1OC(n2cc(F)c(=O)[nH]c2=O)C(NC(=O)OCc2ccccc2)C(O)C1O` (stereo not drawn), the TGI in assay [1] is 32.9 µM; in [2], 41.5 µM; in assay [3], 41.7 µM; in [4], 34.3 µM; in [5] it was 93.6 µM; in [6], 39.7 µM. Further, the TGI in assay [7] is 38.9 µM; in assay [8], 29.8 µM; in assay [9] it was 50.8 µM; in assay [10] it was 63.9 µM.
